Test results from ChEMBL document CHEMBL2385023, “Negative allosteric modulators of metabotropic glutamate receptor subtype” (ACS Med Chem Lett, 2013).

Experiments:
Mus musculus = assay: Anxiolytic activity in ip dosed Harlan CD1 mouse assessed as inhibition of marble burying activity administered 15 to 30 mins prior to test; format: functional
[1] = Oral bioavailability in rat; format: ADME, organism-based; details: in vivo
[2] = Ratio of drug level in brain to plasma in mouse at 10 mg/kg, po; format: ADME, organism-based; set-up: dose 10 mg/kg, route oral; details: read-out: BPR
[3] = Oral bioavailability in cynomolgus monkey; format: ADME, organism-based, Macaca fascicularis; details: in vivo
[4] = Plasma protein binding in human; format: ADME, cell-free; details: read-out: PPB (converted)

bioavailability [1] [%]	Kp [2]	bioavailability [3] [%]	fraction unbound [4]	SMILES	ED (Mus musculus) [mg/kg]
				Cc1cc(Oc2cnc(C)nc2)cc(C(=O)Nc2ccc(F)cn2)n1	10
39				CCc1cccc(NC(=O)c2cc(Oc3cncnc3)cc(C)n2)n1	10
67	4.7	25		Cc1cc(Oc2cncc(F)c2)cc(C(=O)Nc2ccc(F)cn2)n1	30
30	5.9	42	0.086	Cc1cc(Oc2cncnc2)cc(C(=O)Nc2ccc(F)cn2)n1	10
